From PubChem BioAssay AID1508612

assay: passive permeability, PAMPA, ADME assay (AID 1508612); conditions: pH 7.4, 30.0 min, 50.0 µM

Papp [×10⁻⁶ cm/s]	SMILES
26.5	COc1cc(-c2nc(Nc3ccc(F)c(F)c3)c3ccccc3n2)cc(OC)n1
> 1000	CCN1C(=O)c2ccccc2S(=O)c2ccc(NC(=O)Cc3ccc(F)cc3)cc21 (stereo not drawn)
> 1000	O=C(Nc1ccccc1C(=O)Nc1ccccc1C(=O)NCc1ccco1)c1ccco1
> 1000	COc1ccc(NC(=O)CCCc2nnc3n(CCC(C)C)c(=O)c4sccc4n23)cc1Cl
16.7	CS(=O)(=O)c1ccc(-c2cnc(NCc3ccco3)n3cnnc23)cc1
> 1000	COC(=O)CNC(=O)c1nc(-c2ccccc2OC)c2ccccn12
37	CC1=C(C(=O)Nc2nncs2)C(c2[nH]ncc2Cl)N=C(Nc2nc3ccccc3o2)N1 (stereo not drawn)
> 1000	CC(C)c1ccccc1-c1ncc(F)c(NCc2ccc(-c3ccn[nH]3)cc2)n1
< 1	COc1ccc(-c2ccc3nc(-c4ccc(SC)cc4)oc3c2)c(OC)c1OC
71.7	COCCn1ccc2c(C3=CCOCC3)nc(-c3ccc4c(c3)CNC4=O)cc21
624	COc1ccc(-n2cnc3cc(C(=O)N4CCCCC4)ccc32)cc1
< 1	O=C(Cc1nc2ccc(Cl)cc2[nH]1)Nc1ccc(S(=O)(=O)Nc2nccs2)cc1
353	COc1ccc(-c2[nH]nc3ncc(-c4ccc(CO)cc4)nc23)cc1F
709	O=C(O)c1c(Sc2ccccc2)c2cc(Cl)ccc2n1Cc1ccc(Cl)cc1
> 1000	CN(C(=O)CNC(=O)c1ccccc1OCC(=O)Nc1ccc(I)cc1)c1ccccc1
520	Cc1cc(SCc2sc(-c3ccc(C(F)(F)F)cc3)nc2C)ccc1OCC(=O)O
> 1000	COc1cccc(-c2nc(-c3c(C)noc3C)cc3[nH]c(C)cc23)c1OC
< 1	Cc1ccccc1C(=O)N1CCc2cc(-c3nc(NC(=O)Cc4ccc5ccccc5c4)sc3C)ccc21
641	CC(Nc1ccc([S+](=O)([O-])Nc2nccs2)cc1)c1ccccc1 (stereo not drawn)

Papp [×10⁻⁶ cm/s]	SMILES
1.1	CCOc1ccc(OCC)c(NC(=O)C(NS(=O)(=O)c2ccc(Br)s2)c2ccccc2)c1 (stereo not drawn)
< 1	O=C(NCC1Cn2cccc2CN1Cc1cccnc1)Nc1ccccc1 (stereo not drawn)
> 1000	FC(F)(F)c1ccccc1-c1nc(NCc2cccs2)c2ccccc2n1
1.18	COc1ccc(-c2nc3c(c(SCC(=O)Nc4ccc(C(=O)O)cc4)n2)Cc2ccccc2O3)cc1
371	Oc1ccc(CNc2cccnc2)c2cccnc12
545	C#CCNC(=O)c1nc(-c2ccc([S+](C)(=O)[O-])cc2)c2ccccn12
187	CCOC(=O)c1nn(-c2ccc(OC)cc2)c(=O)c2c(N)scc12
719	COc1ccc(CCN2C(=O)N(c3ccc(F)cc3)C(=O)C2CC(=O)Nc2ccc(F)c(F)c2)cc1 (stereo not drawn)
> 1000	COc1ccc(-c2cn[nH]c2-c2ccc(OC)cc2)cc1
752	CC(=O)c1sc(NC(=O)c2ccco2)nc1-c1ccccc1
25	CCOc1ccc(NC(=O)CSC2=Nc3ccccc3C3=NC(CC(=O)NCc4cccs4)C(=O)N23)cc1 (stereo not drawn)
6.67	CCCc1c(CC)c(=N)c2ccccc2n1C
938	Nc1nc(N)c2c(OCC3CCN(Cc4ccccc4F)CC3)cccc2n1
315	Fc1cccc(CNc2nc(-c3ccccc3C(F)(F)F)nc3ccccc23)c1
> 1000	COc1ccc(C2Nc3ccccc3C(=O)N2Cc2cccnc2)cc1COc1c(C)cc(NC(C)=O)cc1C (stereo not drawn)
379	N#Cc1ccccc1Nc1ncc(-c2cccc3ccccc23)o1
27.7	Cc1ccc(S(=O)(=O)Nc2cnccc2C(=O)NCc2ccccc2)cc1
> 1000	O=C(Nc1nc(-c2ccccc2)cs1)c1ccncc1NS(=O)(=O)c1ccc(F)cc1Cl
> 1000	O=C(c1nc(-c2ccc(Cl)cc2Cl)c2cnccn12)N1CCOCC1

Further lines, the molecule ahead of its results:

SMILES	Papp [×10⁻⁶ cm/s]
O=c1[nH]nc(Sc2ncc([N+](=O)[O-])s2)n1-c1ccc2c(c1)OCCO2	137
CCc1cccc(NC(=O)c2c(C)oc3nc(C)nc(N4CCCC4)c23)c1	> 1000
COc1ccc(CN2CCc3nc(N4CCN(c5ccc(F)cc5)CC4)ncc3C2)c(OC)c1OC	> 1000
C[C@@H]1Cc2c([nH]c3cc(Cl)c(F)cc23)[C@]2(N1)C(=O)Nc1ccc(Cl)cc12	763
COc1cc(O)c([C@H](CC(=O)N2CC(C)CC(C)C2)c2ccc3c(c2)OCO3)c(OC)c1 (stereo partly drawn)	> 1000
Fc1cc(Nc2nc(-c3ccncc3)nc3ccccc23)ccc1OCC(F)(F)F	58.8
O=C(Nc1ccc([S+](=O)([O-])Nc2nccs2)cc1)c1ncn[nH]1	< 1
Cc1cc(Nc2nc(-c3ccncc3)nc3ccccc23)n[nH]1	721
COc1ccc(C2CC(=O)Nc3nc(N)sc32)cc1OC (stereo not drawn)	36.1
Fc1cc(Nc2nc(-c3ccncc3)nc3ccccc23)ccc1-c1cccc(OC(F)(F)F)c1	23.5
Oc1ccc(C(=S)N2CCN(c3cccc(Cl)c3)CC2)cc1	677
Clc1cccc(-c2ccc(-c3nnc(CCCc4ccc5cccnc5n4)o3)cc2)c1	> 1000
COCCNCc1ccc(-c2cc3nccc(Oc4ccc(NC(=S)NC(=O)Cc5ccc(F)cc5)cc4F)c3s2)nc1	361
CC(=O)Nc1ccc(N[S+](=O)([O-])c2cccc(NC(=O)c3[nH]c(C)c(C(C)=O)c3C)c2)cc1	20.6
CC(=O)c1c(C)[nH]c(C(=O)N(C)C)c1C	57.4
Cc1cc(C)c(C(=O)Nc2cccc([S+](=O)([O-])N3CCCCC3)c2)[nH]1	936
Cc1ccc(CSCc2ccc(C(=O)NC3CC3)o2)cc1	833
Cc1cnccc1-c1nc(Nc2ccc(F)c(F)c2)c2ccccc2n1	31.1

SMILES	Papp [×10⁻⁶ cm/s]
CCOC(=O)c1[nH]c(C)c(CCC(=O)N2CCN(c3cc(Cl)ccc3C)CC2)c1C	> 1000
NCC(=O)Nc1cccc(-c2nn3c(=O)cc(N4CCNCC4)nc3s2)c1	< 1
Cc1sc2c(c1C)C(c1ccc(Cl)cc1)=N[C@H](CC(=O)NCCCCNC(=O)COc1cccc3c1C(=O)N([C@H]1CCC(=O)NC1=O)C3=O)c1nnc(C)n1-2	< 1
NC(=O)c1ccc(-c2ncc3cnc(-c4cccc(F)c4)cn23)cc1	480
CCc1ccc2oc(NC3=NC(c4[nH]ncc4Cl)C4=C(CCCC4=O)N3)nc2c1 (stereo not drawn)	916
CC(C)CC(C)NC(=O)c1noc(-c2ccc[nH]c2=O)n1 (stereo not drawn)	16.6
O=C(C1CC(=O)N(c2n[nH]c3ccccc23)C1)N1CCC(c2noc3cc(F)ccc23)CC1 (stereo not drawn)	726
CCOC(=O)c1ccc(NC(=O)CSc2nc3c(cc2C#N)N2CCC3CC2)cc1	422
Cc1cccc2nc(NC3=NC(c4[nH]ncc4Cl)C4=C(CCCC4=O)N3)oc12 (stereo not drawn)	624
CS(=O)(=O)CCNCc1ccc(-c2ccc3ncnc(Nc4ccc(OCc5cccc(F)c5)c(Cl)c4)c3c2)o1	< 1
CC[C@H]1C=CC=CC[C@@H](C)[C@H](O)[C@@](C)(O)C(=O)[C@@H](C)[C@H](O)[C@@H](C)C(=O)[C@@H](C)[C@H](O)[C@@H](C)C=CC(=O)O[C@@H]2[C@@H](C)[C@H](CC1)O[C@]1(CC[C@H](C)[C@H](C[C@@H](C)O)O1)[C@H]2C	< 1
Fc1cnc(-c2ccccc2C(F)F)nc1NCC1CCN(c2cnccn2)C1 (stereo not drawn)	> 1000
CC(=O)c1c(C)[nH]c(C(=O)Nc2ccc(C)c(S(=O)(=O)Nc3ccc(Br)cc3)c2)c1C	108
CCCCCCCc1c(C)nc(N2CCOCC2)[nH]c1=O	> 1000
Cc1ccc(S(=O)(=O)NC2CCCCC2)cc1	206
COc1ccc(-c2ccc3ncc4c(c3c2)n(-c2ccc(N3CCNCC3)c(C(F)(F)F)c2)c(=O)n4C)cn1	< 1
CCN1CCN(C(=O)CCCn2nc(C)c3c(C)n(-c4ccc(C)cc4)nc3c2=O)CC1	175
